Where two headings read alike, the source gives them in different places.
Key:
[1] = tested on: Trypanosoma brucei brucei 427 cells; test: T. brucei culture and assay (PrestoBlue); type: cell-based
[2] = tested on: Leishmania amazonensis promastigotes expressing beta-lactamase; test: microbe, parasite or virus in culture; type: cell-based; conditions: for IC50: Leishmania amazonensis
Experimental: Leishmania amazonensis promastigotes expressing beta-lactamase (Buckner et al., Am. J. Trop. Med. Hyg. 72 (2005) 600-605. doi:72/5/600 [pii]) were cultured in RPMI supplemented with 10% fetal calf serum and 1% pen-strep-glut solution (Sigma) at 27° C. Stationary phase promastigotes were adjusted in fresh media, treated with compounds, and incubated at 37° C. At 24 hours, 100 uL of cultures was added to 50 uL of the CellTiter Glo® solution. Luminescence readings were taken with a spectrophotometer and used to calculate inhibition.

[3] = tested on: rat skeletal muscle cell line, L6; test: cells; type: cell-based
Experimental: Cells were maintained in high glucose DMEM obtained from HyClone Laboratories (Logan, Utah) and supplemented with FCS and P/S at the same concentrations used for parasite culture. Cells were passaged every 3-4 days and maintained in a 37° C. humidified incubator in an atmosphere of 5% CO2. For assays. cells were detached, counted using a hemocytometer, and adjusted using fresh media to deliver 5×10^3 cells per well (90 μL) in black walled, flat clear bottom 96-well microtiter plates. After 3 h incubation for attachment, compounds diluted in culture medium were added (10 μL) to triplicate wells. Positive controls (cells treated with podophyllotoxin (Sigma, St. Louis, Mo.)), negative controls (untreated cells), solvent controls (DMSO) and media blanks were included on each plate. Following incubation for 71.5 h, 11 μL of PrestoBlue was added into each well.

[4] = tested on: Trypanosoma cruzi Tulahuen cells expressing beta-galactosidase; test: T. cruzi intracellular assay (beta-galactosidase, L6 host cells); conditions: for IC50: Trypanosoma cruzi, TULAHUEN
Experimental: Trypanosoma cruzi Tulahuen cells expressing beta-galactosidase (Buckner et al., Antimicrob. Agents Chemother. 40 (1996) 2592-2597) were cultured using the L6 cell line as a host cell. Adherent L6 cultures were infected with freshly burst T. cruzi trypomastigotes. Approximately 4-6 days later freshly burst trypomastigotes were collected and used to maintain cultures For assays, trypomastigotes were centrifuged to a loose pellet and incubated for 3 hours to allow the trypomastigote forms to swim out of the pellet. Cells were adjusted for addition to intracellular or extracellular assays. […] For intracellular assays, cells were added to adherent L6 cells using an infection ratio of 1:1 and immediately treated with compounds. At 96 hours incubations, a solution containing chlorophenol-red-B-D-beta-galactopyranosidase (Sigma) and a lysis agent were added. After an additional 2 hour incubation, a spectrophotometer was used to quantify the resulting color change (or lack thereof) which was used to calculate inhibition.
The percentage of cell inhibition was calculated using the formula: Percent Inhibition=1−((Treated Sample value−Medium only value)/(Untreated value−Medium only value))×100. Results are expressed as the mean of two or more independent trials.

[5] = Trypanosoma brucei, Table 1, mean of 2(+) independent trials, read-out: IC50 T. brucei
[6] = Rattus norvegicus, Table 1, read-out: IC50 Toxicity (L6)
[7] = Rattus norvegicus, Table 3B, weighted means of two or more independent trials, read-out: IC50 L6
[8] = read-out: IC50 T. cruzi, Table 1, intracellular assay, mean of 2(+) trials (^c one trial)
[9] = read-out: IC50 T. cruzi, Table 2, intracellular assay, mean of 2(+) independent trials
[10] = read-out: IC50 TC-I, Table 3B, weighted means of two or more independent trials
[11] = Trypanosoma brucei, read-out: T. brucei IC50 dose
[12] = Table 3B, estimated from highest L6 dose tested where no L6 IC50

Compound | IC50 [1, 5] | IC50 ([2]; read-out: IC50 L. amaz.) | IC50 [3, 6] | IC50 [3, 7] | IC50 [4, 8] | IC50 [4, 9] | IC50 [4, 10] | also measured
O=C1/C(=C/c2cccs2)Oc2ccccc21 [Aurone 2004] | 41.8 µM | < 1 µM | > 100 µM | > 100 µM | 13.7 µM | 13.7 µM | 13.7 µM | activity against T. brucei [1]: moderate activity; IC50 ([4]; read-out: T. cruzi IC50 dose): 13.7 µM
O=C1/C(=C/c2ccncc2)Oc2ccccc21 [Aurone 2008] | > 50 µM | 26.3 µM | 81.1 µM | 81.1 µM | 16.4 µM | – | 16.4 µM | –
O=C1/C(=C/c2ccc(Br)cc2)Oc2ccccc21 [Aurone 2009] | 41.7 µM | 10.3 µM | > 100 µM | – | 11.4 µM | – | – | –
O=C1/C(=C/c2ccc([N+](=O)[O-])cc2)Oc2ccccc21 [Aurone 2010] | 40.7 µM | 14.5 µM | 249 µM | – | 20 µM | 20 µM | – | –
COc1ccc(/C=C2\Oc3ccccc3C2=O)cc1OC [Aurone 2011] | 22.9 µM | 1.01 µM | 51.9 µM | – | 21.9 µM | 21.9 µM | – | –
O=C1/C(=C/C=C/c2ccccc2)Oc2ccccc21 [Aurone 2013] | 13.2 µM | 3.03 µM | 58 µM | – | 14.1 µM | 14.1 µM | – | IC50 [1, 11]: 13.2 µM; IC50 ([2]; read-out: IC50 L. amaz. (footnote c: value obtained from one trial)): 3.03 µM; IC50 ([4]; read-out: T. cruzi IC50 dose): 14.1 µM
N#Cc1ccc(/C=C2\Oc3ccccc3C2=O)cc1 [Aurone 2014] | 8.12 µM | 10.7 µM | 239 µM | – | 23.5 µM | 23.5 µM | – | –
O=C1/C(=C/c2cccc([N+](=O)[O-])c2)Oc2ccccc21 [Aurone 2015] | 29.2 µM | 1.71 µM | 226 µM | – | 22.6 µM | 22.6 µM | – | –
O=C1/C(=C/c2ccc(-c3ccccc3)cc2)Oc2ccccc21 [Aurone 2018] | > 50 µM | 7.22 µM | 298 µM | – | 34.4 µM | 34.4 µM | – | –
O=C1/C(=C/c2ccc[nH]2)Oc2ccccc21 [Aurone 2021] | 38.9 µM | < 1 µM | 82.7 µM | 82.7 µM | 14.6 µM | 14.6 µM | 14.6 µM | –
O=C1/C(=C/c2ccco2)Oc2ccccc21 [Aurone 2023] | > 50 µM | < 1 µM | > 100 µM | > 100 µM | 6.97 µM | 6.97 µM | 6.97 µM | IC50 ([1]; Trypanosoma brucei, read-out: IC50 TB): > 50 µM; IC50 [1, 11]: > 50 µM; IC50 ([4]; read-out: T. cruzi IC50 dose): < 10 µM
O=C1/C(=C/c2ncc[nH]2)Oc2ccccc21 [Aurone 2026, (Z)-2-((1H-imidazol-2-yl)methylene)benzofuran-3(2H)-one] | 16.1 µM | < 1 µM | > 100 µM | > 100 µM | 20.9 µM | 20.9 µM | 20.9 µM | selectivity for T. brucei (L6/Tb) [1]: > 6.22; IC50 [1, 11]: 16.1 µM
O=C1/C(=C/c2ccc(Br)cc2)Oc2cc(O)ccc21 [Aurone 2905, (Z)-2-(4-bromobenzylidene)-6-hydroxybenzofuran-3(2H)-one] | > 50 µM | 39 µM | > 100 µM | – | > 50 µM | – | – | –
O=C1/C(=C/c2ccc[nH]2)Oc2cc(O)ccc21 [Aurone 2906, (Z)-2-((1H-pyrrol-2-yl)methylene)-6-hydroxybenzofuran-3(2H)-one] | 34.6 µM | 19.9 µM | > 100 µM | – | > 50 µM | – | – | –
O=C1/C(=C/c2ccc(C(F)(F)F)cc2)Oc2cc(O)ccc21 [Aurone 2909, (Z)-6-hydroxy-2-(4-(trifluoromethyl)benzylidene)benzofuran-3(2H)-one] | > 50 µM | 3.97 µM | > 100 µM | – | > 50 µM | > 50 µM | – | IC50 ([1]; Table 2, mean of 2(+) independent trials, read-out: IC50 T. brucei): > 50 µM; Selectivity L6/La ([2]; Table 1): >25.19; Selectivity L6/La ([2]; Table 2, L6 IC50 / L. amazonensis IC50): >25.19; IC50 ([3]; Table 2, L6 mammalian cells, read-out: IC50 Toxicity (L6)): > 100 µM
COc1cc(OC)c2c(c1)O/C(=C\c1ccc(C)cc1)C2=O [Aurone 7000] | 23.2 µM | – | 142 µM | – | 7.92 µM | 7.92 µM | – | –
O=C1/C(=C/c2cccc(Br)n2)Oc2ccccc21 [Aurone 9260, (Z)-2-((6-bromopyridin-2-yl)methylene)benzofuran-3(2H)-one] | 43.6 µM | – | > 100 µM | > 100 µM | 14.6 µM | – | 14.6 µM | Selectivity L6/Tb ([1]; Table 1): >2.29; Selectivity L6/Tb [1, 12]: >4.96; IC50 [1, 11]: 43.6 µM; Selectivity L6/Tc ([4]; Table 1, intracellular T. cruzi IC50): >6.87; Selectivity L6/Tc-I [4, 12]: >6.87
O=C1/C(=C/c2cccc(O)c2)Oc2ccccc21 [Sample 9252] | – | – | – | – | – | – | – | IC50 ([3]; Rattus norvegicus, Table 3A, weighted means of two or more independent trials, read-out: IC50 L6): > 100 µM; IC50 ([4]; read-out: IC50 TC-I, Table 3A, weighted means of two or more independent trials): 16.5 µM

From patent US20200399238A1, “THERAPEUTIC AURONES” (MIDDLE TENNESSEE STATE UNIVERSITY, priority 2016, published 2020)
